Results on 19 compounds are retold here after PMC11323223 (Bioorganic chemistry, 2022).

The target in assay [1] is T1, FABP7 (Homo sapiens, UniProt O15540). Briefly: Fluorescence displacement binding assay. Conditions: for FABP7/3 SI (selectivity index): FABP7 over FABP3, from Ki values; for FABP7/5 SI (selectivity index): FABP7 over FABP5, from Ki values; for Ki: read-out: FABP7 Ki, average ± S.E. of at least three independent experiments.
Another assay deals with FABP5 (Homo sapiens, UniProt Q01469). The assay is described as follows: Fluorescence displacement binding assay. Conditions: for FABP5/3 SI (selectivity index): FABP5 over FABP3, from Ki values; for FABP5/7 SI (selectivity index): FABP5 over FABP7, from Ki values; for Ki: read-out: FABP5 Ki, average ± S.E. of at least three independent experiments.
Assay [2] addresses T2, FABP3 (Homo sapiens, UniProt P05413). Briefly: Fluorescence displacement binding assay. The settings on record: for Ki: read-out: FABP3 Ki, average ± S.E. of at least three independent experiments.
Assay [3] has as its target T1, FABP7. Conditions: read-out: FABP7 Ki; cited from earlier work.
For assay [4], the target named is T2, FABP3. Conditions: read-out: FABP3 Ki; cited from earlier work.
The subject of assay [5] is CFA-induced thermal hyperalgesia. Briefly: CFA-induced thermal hyperalgesia. Conditions: 20 mg/kg, i.p., mice, 90 min after administration, n = 6. Type of assay: in vivo.

Values joined by “and” are separate entries in the source; they are usually repeats but may differ in a detail not shown here. Equal values may be shown once. Read-outs that look alike come from different tables or passages of the source.

T2 sequence (P05413 whole entry): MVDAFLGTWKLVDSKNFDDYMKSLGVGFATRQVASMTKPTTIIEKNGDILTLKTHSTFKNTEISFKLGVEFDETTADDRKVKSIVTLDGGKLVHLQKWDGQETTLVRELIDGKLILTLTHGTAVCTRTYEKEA
Chain of FABP5 (Q01469 whole entry): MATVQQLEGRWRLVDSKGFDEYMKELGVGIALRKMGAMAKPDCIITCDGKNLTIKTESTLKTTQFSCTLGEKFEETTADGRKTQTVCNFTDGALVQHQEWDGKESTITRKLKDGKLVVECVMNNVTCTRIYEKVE
T1 sequence (O15540 whole entry): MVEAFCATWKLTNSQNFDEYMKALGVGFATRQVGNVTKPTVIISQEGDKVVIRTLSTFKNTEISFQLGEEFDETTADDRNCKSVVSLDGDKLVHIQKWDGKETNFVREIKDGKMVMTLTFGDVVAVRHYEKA

`COc1ccccc1C1C(C(=O)O)C(c2ccccc2OC)C1C(=O)Oc1cccc(-c2cccc3c2OCCO3)c1` (stereo not drawn) [α-6, α-3-(3-(2,3-dihydrobenzo[b][1,4]dioxin-5-yl)phenoxycarbonyl)-2,4-bis(2-methoxyphenyl)cyclobutane-1-carboxylic acid]: at FABP7 [1], the “FABP7/3 SI (selectivity index)” value was 4.4, the “FABP7/5 SI (selectivity index)” value stood at 0.45 and the Ki amounted to 0.91 ± 0.03 µM. At FABP5, the “FABP5/3 SI (selectivity index)” value worked out at 9.8, the “FABP5/7 SI (selectivity index)” value came to 2.2 and the Ki was 0.41 ± 0.15 µM. Besides, the Ki on FABP3 [2] was determined as 4.02 ± 1.04 µM.
As for `COc1ccccc1C1[C@H](C(=O)O)[C@H](c2ccccc2OC)[C@H]1C(=O)OCC1c2ccccc2-c2ccccc21` (stereo partly drawn) [L3], the Ki on FABP7 [3] was 14.3 ± 0.41 µM; on FABP3 [4] it was 25.3 ± 4.57 µM.
As to `COc1ccccc1C1C(C(=O)O)C(c2ccccc2OC)C1C(=O)Oc1cccc(-c2ccc(F)cc2)c1` (stereo not drawn) [γ-13, γ-3-(4′-Fluoro-1,1′-biphenyl-3-yloxycarbonyl)-2,4-bis(2-methoxyphenyl)-cyclobutane-1-carboxylic acid], the Ki at FABP7 [1] worked out at 3.59 ± 0.24 µM. At FABP5, the “FABP5/3 SI (selectivity index)” value is reported as 3.4, the “FABP5/7 SI (selectivity index)” value came out at 2.0 and the Ki worked out at 1.77 ± 0.02 µM. The Ki on FABP3 [2] came to 6.1 ± 1.34 µM.
In the case of `COc1ccccc1C1C(C(=O)O)C(c2ccccc2OC)C1C(=O)Oc1ccccc1-c1ccc(C#N)cc1` (stereo not drawn) [γ-105, γ-3-(4′-Cyano-1,1′-biphenyl-2-yloxycarbonyl)-2,4-bis(2-methoxyphenyl)cyclobutane-1-carboxylic acid], the Ki at FABP7 [1] was found to be 1 ± 0.17 µM; at FABP5 it was 2.81 ± 0.57 µM; at FABP3 [2] it was 3.39 ± 0.63 µM.
Take `O=C1Cc2cc(-c3cccc(OC(=O)C4C(c5ccccc5)C(C(=O)O)C4c4ccccc4)c3)ccc2N1` (stereo not drawn) [γ-104, γ-3-(3-(2-Oxoindolin-5-yl)phenoxycarbonyl)-2,4-diphenylcyclobutane-1-carboxylic acid]: the results for the Ki at FABP7 [1], at FABP5 and at FABP3 [2] were 4.12 ± 0.32 µM, 2.21 ± 0.43 µM and 2.74 ± 0.44 µM, respectively.
Regarding `N#Cc1ccc(-c2ccccc2OC(=O)C2C(c3ccccc3)C(C(=O)O)C2c2ccccc2)cc1` (stereo not drawn) [γ-102, γ-3-(4′-Cyano-1,1′-biphenyl-2-yloxycarbonyl)-2,4-diphenylcyclobutane-1-carboxylic acid], on FABP7 [1], the “FABP7/3 SI (selectivity index)” value turned out to be 6.1, the “FABP7/5 SI (selectivity index)” value is on record as 1.5 and the Ki came out at 0.95 ± 0.05 µM. On FABP5, the “FABP5/3 SI (selectivity index)” value amounted to 4.2 and the Ki was 1.39 ± 0.07 µM. Also, on FABP3 [2], the Ki turned out to be 5.78 ± 1.3 µM.
With `O=C(O)C1C(c2ccccc2)C(C(=O)OCc2ccccc2-c2ccccc2)C1c1ccccc1` (stereo not drawn) [ε-201, ε-3-(1,1′-Biphenyl-2-ylmethoxycarbonyl)-2,4-diphenylcyclobutane-1-carboxylic acid], at FABP7 [1], the “FABP7/3 SI (selectivity index)” value came to 5.0, the “FABP7/5 SI (selectivity index)” value amounted to 2.4 and the Ki stood at 0.68 ± 0.16 µM. In addition, the Ki on FABP5 came out at 1.65 ± 0.22 µM. The Ki on FABP3 [2] is 3.4 ± 0.54 µM.
For the compound `COc1ccccc1C1C(C(=O)O)C(c2ccccc2OC)C1C(=O)Oc1ccc(OC)c2ccccc12` (stereo not drawn) [γ-109, γ-3-(4-Methoxynaphthalen-1-yloxycarbonyl)-2,4-bis(2-methoxyphenyl)cyclobutane-1-carboxylic acid], on FABP7 [1], the “FABP7/3 SI (selectivity index)” value is 7.4, the “FABP7/5 SI (selectivity index)” value worked out at 56.6 and the Ki is 0.47 ± 0.08 µM. Besides, on FABP5, the Ki is 26.6 ± 1.88 µM. For the same compound, the Ki at FABP3 [2] was found to be 3.5 ± 0.63 µM.
Take `O=C1CCc2cc(-c3cccc(OC(=O)C4C(c5ccccc5)C(C(=O)O)C4c4ccccc4)c3)ccc2N1` (stereo not drawn) [α-8, α-3-(3-(2-Oxo-1,2,3,4-tetrahydroquinolin-6-yl)phenox-ycarbonyl)-2,4-diphenyl-cyclobutane-1-carboxylic acid]: on FABP7 [1], the “FABP7/3 SI (selectivity index)” value was 11.6 and 23.2; the “FABP7/5 SI (selectivity index)” value was 1.1 and 1.8. Also, at FABP5, the “FABP5/3 SI (selectivity index)” value stood at 13.0, the “FABP5/7 SI (selectivity index)” value was 0.56 and the Ki is 0.59 ± 0.08 µM. Further, at FABP3 [2], the Ki is 7.67 ± 0.71 µM.
For the compound `COc1ccccc1C1C(C(=O)O)C(c2ccccc2OC)C1C(=O)OCc1cccc2ccccc12` (stereo not drawn) [α-23, α-3-(3-Naphthalen-1-ylmethoxycarbonyl)-2,4-bis(2-methoxyphenyl)cyclobutane-1-carboxylic acid], the Ki was found to be 8.04 ± 0.71 µM on FABP7 [1], 2.15 ± 0.17 µM at FABP5 and 52.6 ± 8.62 µM at FABP3 [2].
Take `COc1ccccc1C1[C@H](C(=O)O)[C@H](c2ccccc2OC)[C@H]1C(=O)Oc1cccc2ccccc12` (stereo partly drawn) [L2]: the results for the Ki on FABP7 [3] and at FABP3 [4] were 0.67 ± 0.04 µM and 0.69 ± 0.17 µM, respectively.
Turning to `COc1ccccc1C1C(C(=O)O)C(c2ccccc2OC)C1C(=O)OC1Cc2ccccc2C1` (stereo not drawn) [α-16, α-3-(2,3-Dihydro-1H-inden-2-yloxycarbonyl)-2,4-bis(2-methoxyphenyl)cyclobutane-1-carboxylic acid], the Ki at FABP7 [1] was found to be 21.8 ± 4.22 µM; at FABP3 [2], 53.8 ± 7.28 µM. Moreover, the “effect on thermal hyperalgesia” value in assay [5] was “full reversal of hyperalgesia”.
Regarding `COc1ccccc1C1C(C(=O)O)C(c2ccccc2OC)C1C(=O)Oc1cccc(-c2ccc(F)cc2)c1` (stereo not drawn) [α-13], the Ki at FABP7 [1] came out at 0.99 ± 0.53 µM; at FABP5, 1.03 ± 0.11 µM; on FABP3 [2], 2.28 ± 0.36 µM.
In the case of `O=C(O)C1C(c2ccccc2)C(C(=O)Oc2ccccc2-c2ccc3c(c2)OCO3)C1c1ccccc1` (stereo not drawn) [α-11, α-3-(2-Benzo[d][1,3]dioxol-5-ylphenoxycarbonyl)-2,4-diphenylcyclobutane-1-carboxylic acid], at FABP7 [1], the “FABP7/3 SI (selectivity index)” value amounted to 3.5, the “FABP7/5 SI (selectivity index)” value is recorded as 2.5 and the Ki turned out to be 0.32 ± 0.13 µM. Further, the Ki at FABP5 is 0.79 ± 0.18 µM. The “FABP3/7 SI (selectivity index)” value at FABP3 [2] (FABP3 over FABP7, from Ki values) is 0.28. For the same compound, on FABP3 [2], the Ki is 1.13 ± 0.15 µM.
For the compound `O=C(O)C1C(c2ccccc2)C(C(=O)Oc2cccc(-c3ccc4c(c3)OCCO4)c2)C1c1ccccc1` (stereo not drawn) [ε-203, ε-3-(3-(2,3-Dihydrobenzo[b][1,4]dioxin-6-yl)phenoxycarbonyl)-2,4-diphenyl-cyclobutane-1-carboxylic acid], the results for the Ki on FABP7 [1], at FABP5 and on FABP3 [2] were 1.49 ± 0.15 µM, 3.15 ± 0.28 µM and 7.84 ± 0.7 µM, respectively.
The like results for `O=C1CCc2cc(-c3cccc(OC(=O)C4C(c5ccccc5)C(C(=O)O)C4c4ccccc4)c3)ccc2N1` (stereo not drawn) [γ-10, γ-3-(3-(2-Oxo-1,2,3,4-tetrahydroquinolin-6-yl)phenoxycarbonyl)-2,4-diphenyl-cyclobutane-1-carboxylic acid] were, in that order, 3.49 ± 0.49 µM, 7.59 ± 1.11 µM and 4.07 ± 0.24 µM.
Turning to `COc1ccccc1C1C(C(=O)O)C(c2ccccc2OC)C1C(=O)Oc1cccc(-c2cccc3c2OCCO3)c1` (stereo not drawn) [γ-6, γ-3-(3-(2,3-Dihydrobenzo[b][1,4]dioxin-5-yl)phenoxycarbonyl)-2,4-bis(2-methoxyphenyl)cyclobutane-1-carboxylic acid], the Ki at FABP7 [1] stood at 1.78 ± 0.45 µM. At FABP5, the “FABP5/3 SI (selectivity index)” value turned out to be 5.4, the “FABP5/7 SI (selectivity index)” value came to 1.4 and the Ki was 1.26 ± 0.12 µM. Moreover, the Ki on FABP3 [2] turned out to be 6.86 ± 0.07 µM.
Regarding `O=C(O)C1C(c2ccccc2)C(C(=O)Oc2cccc3ccccc23)C1c1ccccc1` (stereo not drawn) [L1, α-truxillic acid 1‑naphthyl ester], the values for the Ki on FABP7 [3] and on FABP3 [4] were 0.45 ± 0.07 µM and 2.7 ± 0.42 µM, respectively.
Regarding `COc1ccccc1C1C(C(=O)O)C(c2ccccc2OC)C1C(=O)Oc1cccc(-c2ccc(C#N)cc2)c1` (stereo not drawn) [γ-20, γ-3-(4′-Cyano-1,1′-biphenyl-3-yloxycarbonyl)-2,4-bis(2-methoxyphenyl)-cyclobutane-1-carboxylic acid], the Ki was found to be 9.11 ± 1.47 µM at FABP7 [1], 2.46 ± 0.19 µM on FABP5 and 27.9 ± 6.37 µM on FABP3 [2].

For orientation: Ki means the equilibrium dissociation constant of an inhibitor or competing ligand from its target.
